According to ChEMBL document CHEMBL1130235, “4-hydroxy-5,6-dihydropyrones. 2. Potent non-peptide inhibitors of HIV protease” (J Med Chem, 1997):

Legend:
[1] = molecular target: T1, Human immunodeficiency virus type 1 protease (Human immunodeficiency virus 1, UniProt Q72874); assay: Inhibitory activity against HIV protease
[2] = molecular target: T1, Human immunodeficiency virus type 1 protease; assay: Inhibitory activity against HIV protease at pH 4.7
[3] = molecular target: T1, Human immunodeficiency virus type 1 protease; assay: Inhibitory activity against HIV protease at pH 6.2

Row | Compound | IC50 [1] | IC50 [2] | IC50 [3]
1 | NC(=O)CCCC1(c2ccccc2)CC(=O)C(SCCc2ccccc2)=C(O)O1 (stereo not drawn) | 1.3 µM | – | –
2 | CC(C)c1ccc(C(C)C)c(SC2=C(O)OC(CCc3ccccc3)(c3ccccc3)CC2=O)c1 (stereo not drawn) | 0.014 µM | – | –
3 | CC(C)CC1(c2ccccc2)CC(=O)C(SCCc2ccccc2)=C(O)O1 (stereo not drawn) | 1.2 µM | – | –
4 | CCC(C)c1ccccc1SC1=C(O)OC(CCc2ccccc2)(c2ccccc2)CC1=O (stereo not drawn) | 0.01 µM | – | –
5 | CC(C)CC1(c2ccccc2)CC(=O)C(SCc2ccccc2)=C(O)O1 (stereo not drawn) | 0.44 µM | – | –
6 | O=C1CC(CCc2ccccc2)(c2ccccc2)OC(O)=C1Sc1ccccc1C1CCCCC1 (stereo not drawn) | 0.032 µM | – | –
7 | Cc1ccc(C(C)C)c(SC2=C(O)OC(CCc3ccccc3)(c3ccccc3)CC2=O)c1 (stereo not drawn) | – | 0.007 µM | 0.079 µM
8 | Cc1ccc(C(C)C)c(SC2=C(O)OC(c3ccccc3)(c3ccccc3)CC2=O)c1 | 0.038 µM | – | –
9 | CC(C)c1ccc(C(C)(C)C)c(SC2=C(O)OC(CCc3ccccc3)(c3ccccc3)CC2=O)c1 (stereo not drawn) | 0.047 µM | – | –
10 | CCCCC1(c2ccccc2)CC(=O)C(SCCc2ccccc2)=C(O)O1 (stereo not drawn) | 0.4 µM | – | –
11 | O=C1CC2(CCCc3ccccc32)OC(O)=C1SCCc1ccccc1 (stereo not drawn) | 1.3 µM | – | –
12 | CC(C)CCCC1(c2ccccc2)CC(=O)C(SCc2ccccc2)=C(O)O1 (stereo not drawn) | 0.183 µM | – | –
13 | CN(CC1(c2ccccc2)CC(=O)C(SCCc2ccccc2)=C(O)O1)c1ccccc1 (stereo not drawn) | 2.28 µM | – | –
14 | O=C1CC(CC2CCCC2)(c2ccccc2)OC(O)=C1SCc1ccccc1 (stereo not drawn) | 0.088 µM | – | –
15 | CC(C)CCC1(c2ccccc2)CC(=O)C(SCCc2ccccc2)=C(O)O1 (stereo not drawn) | 0.096 µM | – | –
16 | CCCCC1(c2ccccc2)CC(=O)C(SCc2ccccc2)=C(O)O1 (stereo not drawn) | 0.27 µM | – | –
17 | CC(C)c1ccc(C(C)C)c(SC2=C(O)OC(c3ccccc3)(c3ccccc3)CC2=O)c1 | 0.119 µM | – | –
18 | CC(C)(C)c1ccccc1SC1=C(O)OC(CCc2ccccc2)(c2ccccc2)CC1=O (stereo not drawn) | – | 0.003 µM | 0.104 µM
19 | O=C1CC(COc2ccccc2)(c2ccccc2)OC(O)=C1SCc1ccccc1 (stereo not drawn) | 0.172 µM | – | –
20 | O=C1CC(c2ccccc2)(c2ccccc2)OC(O)=C1SCCc1ccccc1 | 0.152 µM | – | –
21 | CC(C)c1ccccc1SC1=C(O)OC(CCc2ccccc2)(c2ccccc2)CC1=O (stereo not drawn) | – | 0.014 µM | 0.097 µM

Row | Compound | IC50 [1] | IC50 [2] | IC50 [3]
22 | CC(C)CCC1(c2ccccc2)CC(=O)C(SCc2ccccc2)=C(O)O1 (stereo not drawn) | 0.098 µM | – | –
23 | CC(C)c1ccccc1SC1=C(O)OC(c2ccccc2)(c2ccccc2)CC1=O | 0.023 µM | – | –
24 | O=C1CC(c2ccccc2)OC(O)=C1SCc1ccccc1 (stereo not drawn) | 8.9 µM | – | –
25 | O=C(O)CCCCC1(c2ccccc2)CC(=O)C(SCCc2ccccc2)=C(O)O1 (stereo not drawn) | 0.005 µM | – | –
26 | CCC(C)c1ccccc1SC1=C(O)OC(c2ccccc2)(c2ccccc2)CC1=O (stereo not drawn) | 0.017 µM | – | –
27 | CCCCCCC1(c2ccccc2)CC(=O)C(SCc2ccccc2)=C(O)O1 (stereo not drawn) | 0.18 µM | – | –
28 | NC(=O)CCCCC1(c2ccccc2)CC(=O)C(SCCc2ccccc2)=C(O)O1 (stereo not drawn) | 0.338 µM | – | –
29 | CCCC1(c2ccccc2)CC(=O)C(SCCc2ccccc2)=C(O)O1 (stereo not drawn) | 5.1 µM | – | –
30 | O=C1CC2(CCc3ccccc32)OC(O)=C1SCc1ccccc1 (stereo not drawn) | 11.8 µM | – | –
31 | O=C1CC(c2ccccc2)(c2ccccc2)OC(O)=C1SCc1ccccc1 | 0.262 µM | – | –
32 | Cc1ccc(C(C)C)c(Sc2c(O)cc(-c3ccccc3)oc2=O)c1 | – | 0.017 µM | –
33 | O=C1CC(CC2CCCCC2)(c2ccccc2)OC(O)=C1SCc1ccccc1 (stereo not drawn) | 0.137 µM | – | –
34 | O=C(O)CCCC1(c2ccccc2)CC(=O)C(SCCc2ccccc2)=C(O)O1 (stereo not drawn) | 0.27 µM | – | –
35 | CCCCCCC1(c2ccccc2)CC(=O)C(SCCc2ccccc2)=C(O)O1 (stereo not drawn) | 0.112 µM | – | –
36 | Cc1ccc(C(C)C)c(SC2=C(O)O[C@@](CCc3ccccc3)(c3ccccc3)CC2=O)c1 | 0.13 µM | – | –
37 | Cc1ccc(C(C)C)c(SC2=C(O)O[C@](CCc3ccccc3)(c3ccccc3)CC2=O)c1 | 0.006 µM | – | –
38 | CC(C)(C)c1ccccc1Sc1c(O)cc(-c2ccccc2)oc1=O | – | 0.017 µM | –
39 | O=c1cc(-c2ccccc2)oc(O)c1Sc1ccccc1 | 3.1 µM | – | –
40 | Cc1ccc(C(C)(C)C)c(SC2=C(O)OC(c3ccccc3)(c3ccccc3)CC2=O)c1 | 0.012 µM | – | –
41 | O=C1CC(c2ccccc2)OC(O)=C1SCCc1ccccc1 (stereo not drawn) | 2.1 µM | – | –
42 | O=C1CC(CC2CCCC2)(c2ccccc2)OC(O)=C1SCCc1ccccc1 (stereo not drawn) | 0.51 µM | – | –

Row | Compound | IC50 [1] | IC50 [2] | IC50 [3]
43 | O=C1CC2(CCCc3ccccc32)OC(O)=C1SCc1ccccc1 (stereo not drawn) | 2.3 µM | – | –
44 | CCCC1(c2ccccc2)CC(=O)C(SCc2ccccc2)=C(O)O1 (stereo not drawn) | 0.29 µM | – | –
45 | Cc1ccccc1SC1=C(O)OC(c2ccccc2)(c2ccccc2)CC1=O | 0.388 µM | – | –
46 | O=C1CC(c2ccccc2)(c2ccccc2)OC(O)=C1Sc1ccccc1C1CCCCC1 | 0.127 µM | – | –
47 | O=C1CC(CCc2ccccc2)(c2ccccc2)OC(O)=C1Sc1ccccc1 (stereo not drawn) | 0.13 µM | – | –
48 | Cc1ccccc1SC1=C(O)OC(CCc2ccccc2)(c2ccccc2)CC1=O (stereo not drawn) | 0.073 µM | – | –
49 | O=C(O)CCC1(c2ccccc2)CC(=O)C(SCCc2ccccc2)=C(O)O1 (stereo not drawn) | 1.2 µM | – | –
50 | O=C1CC(CCCCO)(c2ccccc2)OC(O)=C1SCc1ccccc1 (stereo not drawn) | 1.26 µM | – | –
51 | Cc1ccc(C(C)(C)C)c(Sc2c(O)cc(-c3ccccc3)oc2=O)c1 | – | 0.028 µM | 0.282 µM
52 | O=C1CC(CCc2ccccc2)(c2ccccc2)OC(O)=C1SCCc1ccccc1 (stereo not drawn) | 0.051 µM | – | –
53 | CCCCCC1(c2ccccc2)CC(=O)C(SCCc2ccccc2)=C(O)O1 (stereo not drawn) | 0.084 µM | – | –
54 | O=C1CC(c2ccccc2)(c2ccccc2)OC(O)=C1Sc1ccccc1 | 0.11 µM | – | –
55 | O=C1CC(c2ccccc2)(c2ccccc2)OC(O)=C1Sc1ccccc1C1CCCC1 | 0.014 µM | – | –
56 | CC(C)(C)c1ccccc1SC1=C(O)OC(c2ccccc2)(c2ccccc2)CC1=O | 0.049 µM | – | –
57 | Cc1ccc(C(C)(C)C)c(SC2=C(O)OC(CCc3ccccc3)(c3ccccc3)CC2=O)c1 (stereo not drawn) | – | 0.01 µM | 0.035 µM
58 | CC(C)CCCC1(c2ccccc2)CC(=O)C(SCCc2ccccc2)=C(O)O1 (stereo not drawn) | 0.155 µM | – | –
59 | O=C1CC(c2ccccc2)(c2ccncc2)OC(O)=C1SCCc1ccccc1 (stereo not drawn) | 0.79 µM | – | –
60 | O=C1CC(CCc2ccccc2)(c2ccccc2)OC(O)=C1SCc1ccccc1 (stereo not drawn) | 0.06 µM | – | –
61 | CC(C)CCC1(c2ccccc2)CC(=O)C(Sc2ccccc2)=C(O)O1 (stereo not drawn) | 1.4 µM | – | –
62 | CCCCCC1(c2ccccc2)CC(=O)C(SCc2ccccc2)=C(O)O1 (stereo in doubt; 4b) | 0.124 µM | – | –
63 | CCCCCC1(c2ccccc2)CC(=O)C(SCc2ccccc2)=C(O)O1 (stereo in doubt; 15b) | 0.327 µM | – | –
